For this test, the target named is human CRTH2 receptor (Homo sapiens (Human), UniProt Q9Y5Y4). Nature of the test: CRTH2 receptor radioligand binding assay (SPA, [3H]-PGD2 displacement). The settings on record: antagonistic activities of selected compounds. As for the experimental part:
The binding of CRTH2 antagonists is determined using membranes prepared from Chinese hamster ovary cells (CHO-K1 cells) transfected with the human CRTH2 receptor (CHO-K1-hCRTH2 cells, Perkin Elmer, Cat No ES-561-C). To produce cell membranes the CHO-K1-hCRTH2 cells are cultured in suspension in CHO SFMII medium supplemented with 400 μg/ml G418. The cells are harvested by centrifugation at 300 g for 10 min at room temperature. The cell pellet is resuspended in Phosphate Buffer Saline (PBS) including a protease inhibitor mix (Complete, Roche) and adjusted to a concentration of 10E7 cells/ml. The CHO-K1-hCRTH2 cells are disrupted by nitrogen […] to obtain the membrane preparation. Cell debris is removed by centrifugation (500 g at 4° C., 30 min) and the supernatant is transferred into fresh tubes followed by a second centrifugation at 40000 g for 1 h at 4° C. to sediment the membranes. The membranes are suspended in SPA incubation buffer (50 mM Tris HCl, 10 mM MgCl2, 150 mM NaCl, 1 mM EDTA, pH 7.4) without bovine serum albumin, homogenized by passing through a single use needle (Terumo, 23G×1″), and stored in aliquots at −80° C.
The CRTH2 receptor binding assay is performed in a scintillation proximity assay (SPA) format with the radioligand [^3H]-PGD2 (Perkin Elmer, NET616000MC). CHO-K1-hCRTH2 cell membranes are again homogenized by passing through a single use needle (Terumo, 23G×1″) and diluted in SPA incubation buffer in suitable concentrations (0.5-10 μg protein/well). The SPA assay is set up in 96 well microtiter plates (Perkin Elmer, CatNo. 6005040) in SPA incubation buffer with a final volume of 200 μl per well and final concentration of 50 mM Tris-HCl, 10 mM MgCl2, 150 mM NaCl, 1 mM EDTA pH 7.4, 0.1% bovine serum albumin). The SPA assay mixture contains 60 μl of the membrane suspension, 80 μl of Wheat Germ Agglutinin coated PVT beads (GE Healthcare, RPNQ-0001, 0.3 mg/well), 40 μl of [^3H]-PGD2 diluted in SPA buffer to a final concentration of 1 nM (50 000 dpm) and 20 μl of the test compound (dissolved in dimethylsulfoxid). The SPA assay mixture is incubated for 3 h at room temperature. Bound radioactivity is determined with a scintillation counter (Micro Beta Trilux, Wallac).
The binding of [^3H]-PGD2 to CHO-K1-hCRTH2 cell membranes is determined in the absence (total binding, Bo) and presence (non-specific binding, NSB) of unlabelled PGD2 (1 μM, Cayman Chemical, Cat No 12010) or a reference CRTH2 antagonist (10 μM CAY10471, Cayman Chemical, Cat No 10006735).
Determination of the affinity of a test compound is calculated by subtraction of the non-specific binding (NSB) from the total binding (Bo) or the binding in the presence of the test compound (B) at a given compound concentration. The NSB value is set to 100% inhibition. The Bo−NSB value is set to 0% inhibition.
% inhibition values were obtained at a defined compound concentration, e.g. at 1 μM, % inhibition of the test compound was calculated by the formula 100−((B−NSB)*100/(Bo−NSB)). % inhibition values above 100% are founded by assay variance.
Sequence of human CRTH2 receptor (Q9Y5Y4 whole entry): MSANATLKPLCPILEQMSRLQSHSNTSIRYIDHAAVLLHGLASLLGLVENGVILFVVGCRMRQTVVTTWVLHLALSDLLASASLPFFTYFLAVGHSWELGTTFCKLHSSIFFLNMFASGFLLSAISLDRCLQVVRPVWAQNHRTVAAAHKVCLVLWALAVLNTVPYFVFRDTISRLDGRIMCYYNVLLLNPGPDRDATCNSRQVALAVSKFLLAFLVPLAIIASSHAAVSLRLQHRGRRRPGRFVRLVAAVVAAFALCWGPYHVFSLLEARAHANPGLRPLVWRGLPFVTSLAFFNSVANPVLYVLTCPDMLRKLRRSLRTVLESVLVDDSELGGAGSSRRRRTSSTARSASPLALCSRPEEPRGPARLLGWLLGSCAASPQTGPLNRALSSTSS
On to `Cc1nn(Cc2ccc(-c3nc4cc(Cl)ccc4[nH]3)cc2F)c(C)c1CC(=O)O` [Compound 108], for which the inhibition constant Ki was found to be 2.3 nM.

`CCc1nn(Cc2ccc(-c3nc4c(F)cc(F)cc4[nH]3)cc2F)c(CC)c1CC(=O)O` [Compound 101] registered a Ki of 1.1 nM.

In the case of `CCc1nn(Cc2ccc(-c3nc4cc(C)c(Cl)cc4[nH]3)cc2)c(CC)c1CC(=O)O` [Compound 55], the affinity, expressed as Ki, was 0.5 nM.

`Cc1nn(Cc2ccc(-c3nc4cc(Br)ccc4[nH]3)cc2)c(C)c1CC(=O)O` [Compound 32] gave a Ki of 1.2 nM.

For the molecule `Cc1nn(Cc2ccc(-c3nc4cc(Cl)cnc4[nH]3)cc2F)c(C)c1CC(=O)O` [Compound 100], the affinity, expressed as Ki, was 18.5 nM.

Consider `Cc1nn(Cc2ccccc2-c2cc3ccc(Cl)cc3[nH]2)c(C)c1CC(=O)O` [Compound 8], for which the Ki is 394 nM.

As for `Cc1nn(Cc2ccc(-c3cc4ccc(C(F)(F)F)cc4[nH]3)cc2F)c(C)c1CC(=O)O` [Compound 5], the affinity corresponds to a Ki of 0.5 nM.

Regarding `Cc1nn(Cc2ccc(-c3nc4c(C)cncc4[nH]3)cc2)c(C)c1CC(=O)O` [Compound 29], the Ki is 646 nM.

Turning to `CCc1nn(Cc2ccc(-c3nc4ccccc4n3C)cc2)c(CC)c1CC(=O)O` [Compound 46], the inhibition constant Ki turned out to be 340 nM.

Turning to `Cc1nn(Cc2ccc(-c3nc4cc(C#N)ccc4[nH]3)cc2F)c(C)c1CC(=O)O` [Compound 78], the affinity corresponds to a Ki of 21.7 nM.

The molecule `CCc1nn(Cc2ccc(-c3nc4c(F)cccc4[nH]3)cc2F)c(CC)c1CC(=O)O` [Compound 74] returned a Ki of 1.2 nM.

Turning to `CCc1nn(Cc2ccc(-c3nc4cc(Cl)ccc4n3C)cc2)c(CC)c1CC(=O)O` [Compound 69], the affinity corresponds to a Ki of 61.2 nM.

`COc1ccc2[nH]c(-c3ccc(Cn4nc(C)c(CC(=O)O)c4C)c(F)c3)nc2n1` [Compound 92] yielded a Ki of 0.7 nM.

Molecule `Cc1nn(Cc2ccc(-c3nc4c(F)cccc4[nH]3)cc2)c(C)c1CC(=O)O` [Compound 52] showed a Ki of 8.7 nM.

`Cc1cc2nc(-c3ccc(Cn4nc(C)c(CC(=O)O)c4C)cc3)[nH]c2cc1Cl` [Compound 54] gave a Ki of 1.1 nM.

`Cc1nn(Cc2ccc(-c3cc4cc(C(F)(F)F)ccc4[nH]3)cc2)c(C)c1CC(=O)O` [Compound 2] registered a Ki of 11.3 nM.

Molecule `Cc1nn(Cc2ccc(-c3nc4cc(F)c(Cl)cc4[nH]3)cc2F)c(C)c1CC(=O)O` [Compound 102] returned a Ki of 2.1 nM.

`CCc1nn(Cc2ccc(-c3nc4nc(OC)ccc4[nH]3)cc2F)c(CC)c1CC(=O)O` [Compound 79] gave an inhibitory constant (Ki) of 1.3 nM.

In the case of `CCc1nn(Cc2ccc(-c3nc4cc(Cl)cnc4[nH]3)cc2)c(CC)c1CC(=O)O` [Compound 42], the affinity corresponds to a Ki of 1.7 nM.

Consider `Cc1nn(Cc2ccc(-c3nc4cc(Cl)ccc4[nH]3)cc2)c(C)c1CC(=O)O` [Compound 24], for which affinity was put at a Ki of 1.9 nM.

On to `Cc1nn(Cc2ccc(-c3cc4ccc(C(F)(F)F)cc4[nH]3)cc2)c(C)c1CC(=O)O` [Compound 4], for which the Ki was determined as 0.3 nM.

Molecule `CCc1nn(Cc2ccc(-c3nc4cc(F)ccc4[nH]3)cc2)c(CC)c1CC(=O)O` [Compound 56] showed a Ki of 1.3 nM.

Molecule `Cc1nn(Cc2ccc(-c3nc4cc5ccccc5cc4[nH]3)cc2)c(C)c1CC(=O)O` [Compound 18] came in with a Ki of 0.8 nM.

In turn, `Cc1nn(Cc2ccc(-c3nc4c(Cl)cc(Cl)cc4[nH]3)cc2)c(C)c1CC(=O)O` [Compound 66] displayed an inhibitory constant (Ki) of 1 nM.

For the molecule `Cc1nn(Cc2ccc(-c3nc4c(F)c(F)ccc4[nH]3)cc2)c(C)c1CC(=O)O` [Compound 47], the affinity corresponds to a Ki of 4.9 nM.

`Cc1nn(Cc2ccc(-c3nc4c(Cl)cc(Cl)cc4[nH]3)cc2F)c(C)c1CC(=O)O` [Compound 73] gave a Ki of 2.5 nM.

In turn, `CCc1nn(Cc2ccc(-c3nc4cc(C#N)ccc4[nH]3)cc2)c(CC)c1CC(=O)O` [Compound 34] yielded a Ki of 3.7 nM.

Regarding `Cc1nn(Cc2ccc(-c3nc4ccncc4[nH]3)cc2)c(C)c1CC(=O)O` [Compound 60], the Ki was found to be 299 nM.

`CCc1nn(Cc2ccc(-c3nc4cc(C)c(Cl)cc4[nH]3)cc2F)c(CC)c1CC(=O)O` [Compound 106] registered a Ki of 0.3 nM.

`Cc1ccc2[nH]c(-c3ccc(Cn4nc(C)c(CC(=O)O)c4C)cc3)nc2c1` [Compound 41] gave a Ki of 4.8 nM.

Turning to `Cc1nn(Cc2ccc(-c3nc4cc(Cl)ccc4n3C)cc2)c(C)c1CC(=O)O` [Compound 25], the affinity corresponds to a Ki of 176 nM.

In turn, `CCc1nn(Cc2ccc(-c3nc4c(Cl)cc(Cl)cc4[nH]3)cc2)c(CC)c1CC(=O)O` [Compound 65] registered an inhibition constant (Ki) of 0.4 nM.

For the molecule `CCc1nn(Cc2ccc(-c3nc4cc(F)ccc4[nH]3)cc2F)c(CC)c1CC(=O)O` [Compound 82], the Ki turned out to be 1 nM.

For the molecule `CCc1nn(Cc2ccc(-c3nc4cc(C)ccc4[nH]3)cc2)c(CC)c1CC(=O)O` [Compound 58], the affinity, expressed as Ki, was 1.3 nM.

As for `Cc1nn(Cc2ccc(-c3nc4cccnc4[nH]3)cc2F)c(C)c1CC(=O)O` [Compound 107], the Ki came to 87.4 nM.

In the case of `CCc1nn(Cc2ccc(-c3nc4cncc(C)c4[nH]3)cc2F)c(CC)c1CC(=O)O` [Compound 103], the inhibitory constant (Ki) came to 87.6 nM.

For the molecule `Cc1nn(Cc2ccc(-c3nc4cc(F)ccc4[nH]3)cc2F)c(C)c1CC(=O)O` [Compound 86], the affinity corresponds to a Ki of 6.5 nM.

`Cc1nn(Cc2ccc(-c3nc4cc(C(F)(F)F)ccc4[nH]3)cc2F)c(C)c1CC(=O)O` [Compound 111] came in with an inhibition constant (Ki) of 2.5 nM.

Molecule `CCc1nn(Cc2ccc(-c3nc4cc(F)c(Cl)cc4[nH]3)cc2)c(CC)c1CC(=O)O` [Compound 27] displayed an inhibition constant Ki of 0.4 nM.

Regarding `CCc1nn(Cc2ccc(-c3nc4cccnc4[nH]3)cc2)c(CC)c1CC(=O)O` [Compound 48], the Ki amounted to 12.9 nM.

Take `CCc1nn(Cc2ccc(-c3nc4cc5ccccc5cc4[nH]3)cc2)c(CC)c1CC(=O)O` [Compound 19]: the Ki was 0.1 nM.

Consider `CCc1nn(Cc2ccc(-c3nc4cc(OC)ccc4[nH]3)cc2)c(CC)c1CC(=O)O` [Compound 39], for which the affinity, expressed as Ki, was 1.3 nM.

`CCc1nn(Cc2ccc(-c3nc4c(F)c(F)ccc4[nH]3)cc2)c(CC)c1CC(=O)O` [Compound 43]: the Ki is 1.1 nM.

`CCc1nn(Cc2ccc(-c3nc4cc(F)c(Cl)cc4[nH]3)cc2F)c(CC)c1CC(=O)O` [Compound 76] gave a Ki of 0.6 nM.

Turning to `Cc1nn(Cc2ccc(-c3nc4cc(Cl)c(Cl)cc4[nH]3)cc2)c(C)c1CC(=O)O` [Compound 17], the affinity corresponds to a Ki of 1.2 nM.

The molecule `CCc1nn(Cc2ccc(-c3nc4ccc(C(F)(F)F)cc4[nH]3)cc2)c(CC)c1CC(=O)O` [Compound 20] displayed a Ki of 0.2 nM.

The molecule `Cc1cc(Cn2nc(C)c(CC(=O)O)c2C)ccc1-c1nc2ccccc2[nH]1` [Compound 22] returned a Ki of 21.9 nM.

`CCc1nn(Cc2ccc(-c3nc4ccccc4[nH]3)cc2)c(CC)c1CC(=O)O` [Compound 15] had a Ki of 2.3 nM.

`Cc1nn(Cc2ccc(-c3cc4ccc(Cl)cc4[nH]3)cc2)c(C)c1CC(=O)O` [Compound 1, (1-[4-(6-Chloro-1H-indol-2-yl)-benzyl]-3,5-dimethyl-1H-pyrazol-4-yl)-acetic Acid]: affinity was put at a Ki of 0.8 nM.

For the molecule `CCc1nn(Cc2ccc(-c3nc4c(F)c(F)ccc4[nH]3)cc2F)c(CC)c1CC(=O)O` [Compound 84], the affinity, expressed as Ki, was 0.8 nM.

For `Cc1nn(Cc2ccc(-c3nc4ccc(C(F)(F)F)cc4[nH]3)cc2)c(C)c1CC(=O)O` [Compound 21], the Ki was determined as 1.4 nM.

The Ki is the dissociation constant of the complex between target and ligand, obtained from inhibition or displacement. Low readings indicate tighter binding, high ones weaker binding.

The values above are taken from US9206164B2, “Pyrazole compounds as CRTH2 antagonists” (Boehringer Ingelheim International GmbH, priority 2011, dated 2015).
